Data as given in patent US20240279232A1, “USE OF SUBSTITUTED 5-(4-METHYL-6-PHENYL-4H-BENZO[F]IMIDAZO[1,5-A][1,4] DIAZEPIN-3-YL)-1,2,4-O[…] THE TREATMENT OF INFLAMMATORY CONDITIONS” (priority 2021, published 2024).
Read-outs that look alike come from different tables or passages of the source.

Key:
DOR (δ opioid receptor) = target: T1, DOR (δ opioid receptor) (Homo sapiens, UniProt P41143); assay: DOR radioligand binding ([3H]-DADLE, HEK293 cell homogenates); settings: Percent inhibition at 10,000 nM; [3H]-DADLE
T1 construct: expressed in transfected cells; host or cells: HEK293
T1 sequence (P41143 whole entry): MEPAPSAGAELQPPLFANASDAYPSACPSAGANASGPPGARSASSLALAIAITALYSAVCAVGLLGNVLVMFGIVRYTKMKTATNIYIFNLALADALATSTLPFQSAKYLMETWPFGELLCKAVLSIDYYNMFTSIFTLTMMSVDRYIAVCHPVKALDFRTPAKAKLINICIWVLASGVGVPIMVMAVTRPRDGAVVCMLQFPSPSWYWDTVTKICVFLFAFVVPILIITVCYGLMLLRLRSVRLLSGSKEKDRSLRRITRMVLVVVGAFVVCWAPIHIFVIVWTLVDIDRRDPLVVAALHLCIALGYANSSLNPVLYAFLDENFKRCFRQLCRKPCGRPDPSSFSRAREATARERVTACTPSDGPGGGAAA
Description: (§1) Radioligand binding assays. Detailed protocols for the primary and secondary radioligand binding assays can be found in the National Institute of Mental Health's Psychoactive Drug Screening Program (NIMH PDSP) Assay Protocol Book (Roth, 2018). Briefly, primary and secondary radioligand binding assays are carried out in a final of volume of 125 μL per well in appropriate binding buffer. […] Total binding and nonspecific binding are determined in the absence and presence of 10 μM of appropriate reference compound (Naltrindole DOR, Salvinorin A KOR and DAMGO MOR). In brief, plates are usually incubated at room temperature and in the dark for 90 min. Reactions are stopped by vacuum filtration onto 0.3% polyethyleneimine (PEI) soaked 96-well filter mats using a 96-well Filtermate harvester, followed by three washes with cold PBS buffer. Scintillation cocktail is then melted onto the microwave-dried filters on a hot plate and radioactivity counted in a Microbeta counter. The data (n=6) were analyzed by nonlinear regression.
(§2) Ligand affinities were determined for KOR (κ opioid receptor), DOR (δ opioid receptor), and MOR (μ opioid receptor) using radioligand binding assays at a screening concentration of 10,000 nM. For these assays, cell homogenates from HEK293 cells that overexpressed KOR, MOR, and DOR were used in combination with [^3H]-U69593, [^3H]-DAMGO, and [^3H]-DADLE, respectively Compounds that exceeded more than 50% radioligand displacement were investigated further in concentration-dependent experiments to determine Ki values. Gamma aminobutyric acid type A receptor (GABAAR) binding was determined with rat brain homogenate and ^3H-flunitrazepam. Flunitrazepam binds GABAAR subtypes that consists of two α and two β subunits and one γ or δ subunit. Strong affinities to α1-3,5,6β1-3γ1-y/δ GABAARS have been reported for flunitrazepam. The […] GABAAR subtype expression in the brain includes 43% α1β2γ2, 15% α2β3γ2+8% α2βγ1, 10% α3β3γ2, 6% α4βγ/δ, 4% α5β3γ2, and 4% α6β2γ2/δ. Therefore, compounds with high affinity toward the synaptic benzodiazepine-sensitive receptors (BZR) predominately bind α1-3β2-3γ1-2 GABAARs. Alternatively, compounds with weak BZR binding might be selective for α4-6βγ/δ GABAARs.
(§3) Psychoactive Drug Screening Program. Detailed protocols for the primary and secondary radioligand binding assays can be found in the National Institute of Mental Health's Psychoactive Drug Screening Program (NIMH PDSP) Assay Protocol Book. Briefly, primary and secondary radioligand binding assays are carried out in a final of volume of 125 μL per well in appropriate binding buffer. The radioactive ligand concentration is close to the Kd. Total binding and nonspecific binding are determined in the absence and presence of 10 μM of appropriate reference compound, respectively. In brief, plates are usually incubated at room temperature and in the dark for 90 min. Reactions are stopped by vacuum filtration onto 0.3% polyethyleneimine (PEI) soaked 96-well filter mats using a 96-well Filtermate harvester, followed by three washes with cold PBS buffer. Scintillation cocktail is then melted onto the microwave-dried filters on a hot plate and radioactivity counted in a Microbeta counter. The data (n=6) were analyzed by nonlinear regression.

[1] = system: BZR (benzodiazepine site of GABAAR); assay: GABAAR/BZR binding, rat brain homogenate with 3H-flunitrazepam; settings: rat brain homogenate, 3H-flunitrazepam; for BZR %: Percent inhibition at 10,000 nM
Description: as §2, §3

KOR (κ opioid receptor) = target: T2, KOR (κ opioid receptor) (Homo sapiens, UniProt P41145); assay: KOR radioligand binding ([3H]-U69593, HEK293 cell homogenates)
T2 construct: expressed in transfected cells; host or cells: HEK293 (stably transfected)
T2 sequence (P41145 whole entry): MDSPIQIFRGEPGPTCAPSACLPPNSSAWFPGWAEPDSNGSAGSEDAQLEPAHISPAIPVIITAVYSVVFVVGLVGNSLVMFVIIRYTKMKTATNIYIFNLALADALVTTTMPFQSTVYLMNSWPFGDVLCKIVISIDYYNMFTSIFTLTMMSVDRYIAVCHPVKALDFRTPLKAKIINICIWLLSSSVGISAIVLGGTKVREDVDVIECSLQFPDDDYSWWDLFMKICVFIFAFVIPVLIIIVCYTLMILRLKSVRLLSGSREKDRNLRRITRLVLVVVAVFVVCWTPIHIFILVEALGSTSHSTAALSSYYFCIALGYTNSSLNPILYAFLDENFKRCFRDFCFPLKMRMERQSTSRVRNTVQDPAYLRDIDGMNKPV
Description: as §1, §2, §3

Mouse microglia [2] = assay: Cell viability (CellTiter-Glo), mouse microglia; assay type: cell-based; settings: 50 μM, CellTiter-Glo
Description: (§4) Next, a library of GABAAR ligands was investigated to identify compounds that reduce the production of NO as a marker of anti-inflammatory activity. […] NO was quantified with a Greiss assay. Cell viability was determined with CellTiter-Glo.
(§5) Nitric oxide production (Griess assay) and viability assay (CellTiter-Glo). 80 μL of mouse microglia culture (1×10^6 cells/mL) was plated into sterile 384 well plates representing non-activated wells. The remaining culture was activated with 50 ng/ml LPS (Invivogen, NC9836) and 150 U/mL IFNγ (R&D Systems, 485MI100) and distributed into the 384 well plates. […] Assay plates were incubated for approximately 24 hours (unless otherwise noted) at 37° C., centrifuged, and 40 μL of supernatant transferred to a new plate for analysis using the Griess Assay (Promega, Madison, WI). Absorbance at 530 nm was measured using a TECAN Infinite M1000 plate reader. The remaining 40 μL containing cells was analyzed for toxicity by the CellTiter-Glo Assay (Promega, Madison, WI). Luminescence was read using a TECAN Infinite M1000 plate reader.

Mouse microglia [3] = assay: NO production (Griess assay), LPS/IFNγ-activated mouse microglia; assay type: cell-based; settings: for inhibition at 50 µM / inhibition at 10 µM: Mus musculus, Microglia, 24 h; for Inhibition of NO production (%) Mouse microglia 50 μM: 24 hours, 1 μM GABA, LPS/IFNγ
Description: as §4
Cell culture. A) HMC3 Microglia (CRL-3304) were maintained in treated cell culture flasks (Nunc, 156472) with EMEM (Corning, 10010CV) supplemented with 10% heat-inactivated FBS (Corning, 35011CV) and 100 U/mL penicillin and 100 μg/mL streptomycin (Hyclone, SV30010). Cultures were maintained at 37° C. and 5% CO2. When cells reached a density of 7×10^4 cells/mL, cultures were passaged with 0.25% Trypsin (Corning, 25-053-CI) and resuspended to a density no lower than 10,000 cells/mL. B) Human and mouse microglia cell lines were a gift from Dr. David Alvarez-Carbonell at Case Western Reserve University (Cleveland, OH). Microglia were cultured in cell culture treated flasks (Nunc, 156472) with DME/F12 media (Hyclone, SH30023.01) supplemented with 10% heat-inactivated FBS (Corning, 35011CV), 100 U/mL penicillin/100 μg/mL streptomycin (Hyclone, SV30010), and Normocin (Invivogen, ant-nr). Cultures were maintained at 37° C. and 5% CO2. […] Cultures were maintained at 37° C. and 5% CO2. Cells were passaged when they reached a density of approximately 3×10^6 cells/mL using cell scrapers (VWR, 10062-906) to lift cells from flask surface and resuspended at densities of approximately 500,000 cells/mL.
as §5

MOR (μ opioid receptor) = target: T3, MOR (μ opioid receptor) (Homo sapiens, UniProt P35372); assay: MOR radioligand binding ([3H]-DAMGO, HEK293 cell homogenates); settings: Percent inhibition at 10,000 nM; [3H]-DAMGO
T3 construct: expressed in transfected cells; host or cells: HEK293
T3 sequence (P35372 whole entry, species assumed): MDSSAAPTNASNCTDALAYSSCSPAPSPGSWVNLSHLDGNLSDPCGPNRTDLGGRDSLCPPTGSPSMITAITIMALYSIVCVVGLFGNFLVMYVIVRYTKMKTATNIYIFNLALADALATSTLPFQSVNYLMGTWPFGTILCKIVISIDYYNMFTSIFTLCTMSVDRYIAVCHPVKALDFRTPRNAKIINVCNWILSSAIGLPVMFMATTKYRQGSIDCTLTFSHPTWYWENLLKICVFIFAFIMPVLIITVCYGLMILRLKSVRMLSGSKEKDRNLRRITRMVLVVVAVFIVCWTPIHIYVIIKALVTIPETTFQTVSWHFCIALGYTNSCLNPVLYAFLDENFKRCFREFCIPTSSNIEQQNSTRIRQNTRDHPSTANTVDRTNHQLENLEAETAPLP
Description: as §1, §2, §3

RAW macrophages = assay: NO production (Griess assay), LPS/IFNγ-activated RAW264.7 macrophages; assay type: cell-based, mouse; settings: Mus musculus, Macrophage, 24 h
HEK293 = assay: Viability assay (CellTiter-Glo), HEK293; assay type: cell-based, human; settings: 120 μM, CellTiter-Glo
Description: (§6) The screen identified several compounds that reduced NO in activated microglia and macrophages. The tested compounds included achiral and chiral imidazodiazepines and benzodiazepines. In general, microglia were more sensitive to compound treatment with more pronounced reduction of NO than macrophages. […] Cell viability assays with HEK293 (kidney) and HepG2 (liver) cells were conducted in a concentration dependent manner. A limited number of compounds, such as GL-III-63, GL-III-76A, and GL-III-77, were toxic at 120 μM.
(§7) Viability assay. Human liver hepatocellular carcinoma (HEPG2) and human embryonic kidney 293T (HEK293T) cell lines were purchased (ATCC) and cultured in 75 cm^2 flasks (CellStar). Cells were grown in DMEM/High Glucose (Hyclone, #SH3024301) media to which non-essential amino acids (Hyclone, #SH30238.01), 10 mM HEPES (Hyclone, #SH302237.01), 5×10^6 units of penicillin and streptomycin (Hyclone, #SV30010), and 10% of heat inactivated fetal bovine serum (Gibco, #10082147) were added. Cells were harvested using 0.05% Trypsin (Hyclone, #SH3023601), washed with PBS, and dispensed into sterile white, optical bottom 384-well plates (NUNC, #142762). After three hours, small molecule DMSO solutions were transferred with a Tecan Freedom EVO liquid handling system equipped with a 100 nL pin tool (V&P Scientific). The controls were 3-dibutylamino-1-(4-hexyl-phenyl)-propan-1-one (25 mM in DMSO, positive control) and DMSO (negative control). The cells were incubated for 48 hours followed by the addition of CellTiter-Glo™, a luminescence-based cell viability assay (Promega, Madison, WI). All luminescence readings were performed on a Tecan Infinite M1000 plate reader. The assay was carried out in quadruplet with two independent runs. The data were analyzed by nonlinear regression.

HEPG2 = assay: Viability assay (CellTiter-Glo), HEPG2; assay type: cell-based, human; settings: 120 μM, CellTiter-Glo
Description: as §6, §7

[4] = Percent inhibition at 10,000 nM, [3H]-U69593
[5] = concentration-dependent, [3H]-U69593, read-out: KOR (Ki)

Structure (SMILES) | inhibition at 10 µM (DOR (δ opioid receptor)) | BZR % [1] | Ki [1] | Ki (KOR (κ opioid receptor)) | inhibition at 10 µM (KOR (κ opioid receptor); [4]) | Cell viability (%) Mouse microglia 50 μM (Mouse microglia [2]) | inhibition at 50 µM (Mouse microglia [3]) | inhibition at 10 µM (MOR (μ opioid receptor)) | inhibition at 10 µM (Mouse microglia [3]) | inhibition at 10 µM (RAW macrophages) | Cell viability (%) HEK293 120 μM (HEK293) | Cell viability (%) HEPG2 120 μM (HEPG2) | Inhibition of NO production (%) Mouse microglia 50 μM (Mouse microglia [3]) | Ki (KOR (κ opioid receptor); [5]) | DOR % (DOR (δ opioid receptor)) | KOR % (KOR (κ opioid receptor); [4]) | MOR % (MOR (μ opioid receptor))
C#Cc1ccc2c(c1)C(c1ccccc1F)=N[C@@H](C)c1c(-c3nc(C)no3)ncn1-2 [GL-I-65, (S)-5-(8-Ethynyl-6-(2-fluorophenyl)-4-methyl-4H-benzo[f]imidazo[1,5-a][1,4]diazepin-3-yl)-3-methyl-1,2,4-oxadiazole] | 7% | 79% | 1150 nM | 222 nM | 88% | 100 ± 12% | 19 ± 9% | 2% |  |  |  |  |  |  |  |  | 
C#Cc1ccc2c(c1)C(c1ccccc1F)=N[C@@H](C)c1c(-c3nc(CC)no3)ncn1-2 [GL-I-66, (S)-3-Ethyl-5-(8-ethynyl-6-(2-fluorophenyl)-4-methyl-4H-benzo[f]imidazo[1,5-a][1,4]diazepin-3-yl)-1,2,4-oxadiazole] | 2% | 80% | 654 nM | 212 nM | 92% | 71 ± 9% | 86 ± 11% | 28% | 5 ± 2% |  |  |  |  |  |  |  | 
C#Cc1ccc2c(c1)C(c1ccccn1)=N[C@H](C)c1c(C(=O)OCC)ncn1-2 [GL-II-19] | 2% | 71% | 1140 nM |  | 44% | 100 ± 11% |  | 17% | 32 ± 4% | 2 ± 2% | 90 ± 5% | 100 ± 9% |  |  |  |  | 
C#Cc1ccc2c(c1)C(c1ccccc1F)=NCc1c(-c3nc(C)no3)ncn1-2 [GL-III-23] |  |  |  |  |  | 100 ± 2% |  |  |  |  | 65 ± 5% | 90 ± 13% | 28 ± 5% |  |  |  | 
Cc1noc(-c2ncn3c2[C@@H](C)N=C(c2ccccn2)c2cc(C4CC4)ccc2-3)n1 [GL-III-64] | 14% | 92% | 1490 nM | 2050 nM | 60% | 96 ± 10% | 26 ± 10% | 7% |  |  | 75 ± 8% | 75 ± 10% |  |  |  |  | 
C#Cc1ccc2c(c1)C(c1ccccc1F)=NCc1c(-c3cnco3)ncn1-2 [KRM-II-18B] | 20% | 97% | 38 nM |  | 89% | 100 ± 3% | 0% | 11% |  |  |  |  |  | 361 nM |  |  | 
C#Cc1ccc2c(c1)C(c1ccccn1)=NCc1c(-c3cnco3)ncn1-2 [KRM-II-81] |  | 86% | 294 nM |  |  | 100 ± 5% |  |  |  |  | 96 ± 11% | 100 ± 12% | 0 ± 1% |  | 15% | 46% | 7%
C#Cc1ccc2c(c1)C(c1ccccc1)=NCc1c(-c3cnco3)ncn1-2 [KRM-II-82] | 20% | 95% | 96 nM |  | 78% | 100 ± 6% | 0% | 5% |  |  |  |  |  | 1200 nM |  |  | 
C#Cc1ccc2c(c1)C(c1ccccn1)=NCc1c(-c3nc(CC)no3)ncn1-2 [MP-III-080] | 0% | 88% | 303 nM |  | 47% | 100 ± 14% | 0% | 0% |  |  |  |  |  |  |  |  | 
C#Cc1ccc2c(c1)C(c1ccccc1)=NCc1c(C(=O)NC)ncn1-2 [YT-III-31] |  |  |  |  |  | 100 ± 8% |  |  |  |  | 96 ± 10% | 100 ± 7% | 0 ± 2% |  |  |  | 
C#Cc1ccc2c(c1)C(c1ccccc1F)=NCc1c(C(=O)OCCCOC(=O)c3ncn4c3CN=C(c3ccccc3F)c3cc(C#C)ccc3-4)ncn1-2 [YT-III-271] |  |  |  |  |  | 100 ± 3% |  |  |  |  |  |  | 0 ± 4% |  |  |  | 
